Data on 8 molecules can be found in paper PMC10106456 (Communications Biology, 2023).

Values joined by “and” are separate entries in the source; they are usually repeats but may differ in a detail not shown here. Equal entries are not always repeated. Where two headings read alike, the source gives them in different places.

The term MIC denotes the least concentration at which growth counts as inhibited. By kcat is commonly meant the maximal rate divided by the concentration of active sites. As a reminder, the Km is the substrate concentration at which the rate is half of its maximum. Broadly, the kcat/Km is the turnover number divided by the Michaelis constant.

In series [1] the test system is E. coli DH5αZ1 + pZE24-tet(X7). In words: Microbroth dilution antibiotic susceptibility test (MIC). In kind it is cell-based. To be noted: Escherichia coli, 20 h. The procedure:
(§1) For high expression, 1 mM IPTG fully relieves repression by LacI[44] thus only IPTG was used in whole-cell tests. Chemically-competent E. coli DH5αZ1 (Expressys) was transformed with these pZE24 constructs by heat shock. Minimum inhibitory concentrations (MICs) were measured as per Clinical and Laboratory Standards Institute (CLSI) guidelines. Substrates and inhibitors were dissolved in DMSO (20 mg/mL) then diluted to working concentrations in cation-adjusted Mueller-Hinton II broth supplemented with 50 μg/mL kanamycin (Supplementary Data 2). Antibiotic susceptibility testing panels were prepared in 96-well flat-bottom microplates (Corning) by two-fold serial dilution of the antibiotic of interest (Supplementary Data 3). […] Liquid cultures of each strain were grown to exponential phase then diluted to a standard concentration (OD600 = 0.0015, which is equivalent to double ~5 × 10^5 CFU/mL) and inoculated into each panel at a 1:1 ratio. […] Each strain-antibiotic/inhibitor combination was tested in triplicate, along with no-drug and no-cell controls. Inoculated panels were sealed with Breathe-Easy membranes (Sigma-Aldrich) and incubated at 37 °C for 20 h. MICs were scored by absorbance measurements at 600 nm (OD600) using the Synergy H1 microplate reader (Biotek Instruments, Inc).

Series [2] deals with E. coli DH5αZ1 + pZE24 (empty). Described as above. In kind it is cell-based. To be noted: Escherichia coli, 20 h, drug alone. How it is done:
as §1

For the next series, the target named is Tet(X6) (Proteus genomosp. 6, UniProt A0A6I7DAX3). To be noted: for Michaelis-menten nonlinear fit, best-fit Kcat / Michaelis-menten nonlinear fit, best-fit Vmax: supplementary source data; for Michaelis-menten nonlinear fit, best-fit Vmax: Tet(X6) 0.4 µM; for Sigmoidal curve fit, best-fit Kprime / Sigmoidal curve fit, best-fit Vmax / Sigmoidal curve fit, best-fit h / Sigmoidal curve fit, best-fit Khalf: allosteric sigmoidal model, Supplementary Data 1; for Sigmoidal curve fit, best-fit Khalf: [Sub] in μM. The procedure: All experiments were prepared open to air in non-degassed buffer solutions at room temperature. […] Initial enzyme velocities were determined by linear regression using Agilent Cary WinUV Software over the linear range of the reaction (typically between 0 to 1 min), plotted against the concentration of the substrate, and fitted to the Michaelis–Menten or allosteric sigmoidal nonlinear regression equations using GraphPad Prism 6.

The subject of series [3] is E. coli DH5αZ1 + pZE24-tet(X6). The experiment in a line: Microbroth dilution antibiotic susceptibility test (MIC). In kind it is cell-based. To be noted: Escherichia coli. The procedure: as §1
In series [4] the test system is CN(C)[C@@H]1C(O)=C(C(N)=O)C(=O)[C@@]2(O)C(O)=C3C(=O)c4c(O)cccc4[C@@](C)(O)[C@H]3C[C@@H]12. In words: purified protein, by the assay type. To be noted: other: compound as substrate of Tet(X6), Michaelis-Menten fit, pH 8.5.
Series [5] has as its system CN(C)c1cc(NC(=O)CNC(C)(C)C)c(O)c2c1C[C@H]1C[C@H]3[C@H](N(C)C)C(O)=C(C(N)=O)C(=O)[C@@]3(O)C(O)=C1C2=O. The experiment in a line: purified protein, by the assay type. To be noted: pH 8.5.
Series [6] concerns Cc1c2c(c(O)c3c(O)cccc13)C(=O)[C@]1(O)C(=O)C(C(N)=O)=C(O)[C@@H](N(C)C)[C@@H]1C2. The experiment in a line: purified protein, by the assay type. To be noted: other: compound as substrate of Tet(X6), Michaelis-Menten fit, pH 8.5.
Series [7] relates to CN(C)[C@@H]1C(O)=C(C(N)=O)C(=O)[C@@]2(O)C(O)=C3C(=O)c4c(O)c(NC(=O)CN5CCCC5)cc(F)c4C[C@H]3C[C@@H]12. The experiment in a line: purified protein, by the assay type. The settings on record: pH 8.5.
In series [8] the test system is [H][C@@]12Cc3c(N(C)C)cc(CNCC(C)(C)C)c(O)c3C(=O)C1=C(O)[C@]1(O)C(=O)C(C(N)=O)=C(O)[C@@H](N(C)C)[C@]1([H])C2. The experiment in a line: purified protein, by the assay type. To be noted: pH 8.5.
Another series has as its system Tet(X2). To be noted: surface-localized single point mutation; cited from earlier work.
[9] abbreviates: [Sub] 1.96581 μM, trials 1-3, absorbance 400 nm.
[10] abbreviates: [Sub] 3.93162 μM, trials 1-3, absorbance 400 nm.
Where [11] appears, read: [Sub] 5.89744 μM, trials 1-3, absorbance 400 nm.
[12] abbreviates: [Sub] 7.86325 μM, trials 1-3, absorbance 400 nm.
The mark [13] stands for this setting: [Sub] 9.82906 μM, trials 1-3, absorbance 400 nm.
Where [14] appears, read: [Sub] 20.641 μM, trials 1-3, absorbance 400 nm.
Where [15] appears, read: [Sub] 30.4701 μM, trials 1-3, absorbance 400 nm.
The mark [16] stands for this setting: other: compound as substrate of Tet(X6), Michaelis-Menten fit.
The mark [17] stands for this setting: other: supplementary source data, [Sub] in μM.
Where [18] appears, read: [Sub] 3.8961 μM, trials 1-3, absorbance 400 nm (440 nm for aTC).
Setting [19] is: [Sub] 6.16883 μM, trials 1-3, absorbance 400 nm (440 nm for aTC).
The mark [20] stands for this setting: [Sub] 8.11688 μM, trials 1-3, absorbance 400 nm (440 nm for aTC).
Where [21] appears, read: [Sub] 10.0649 μM, trials 1-3, absorbance 400 nm.
The mark [22] stands for this setting: [Sub] 29.8701 μM, trials 1-3, absorbance 400 nm (440 nm for aTC).

Sequence of Tet(X6) (A0A6I7DAX3 entry or part of it): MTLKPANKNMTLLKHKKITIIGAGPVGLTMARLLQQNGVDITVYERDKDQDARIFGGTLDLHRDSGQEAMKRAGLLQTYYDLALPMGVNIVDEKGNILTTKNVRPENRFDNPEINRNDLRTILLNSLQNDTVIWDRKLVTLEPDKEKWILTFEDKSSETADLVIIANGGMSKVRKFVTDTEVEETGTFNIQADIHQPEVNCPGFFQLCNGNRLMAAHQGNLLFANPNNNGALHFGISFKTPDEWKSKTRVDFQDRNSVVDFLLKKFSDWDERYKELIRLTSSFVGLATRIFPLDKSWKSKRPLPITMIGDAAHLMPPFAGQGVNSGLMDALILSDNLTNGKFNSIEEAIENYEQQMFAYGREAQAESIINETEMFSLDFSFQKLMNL

For `CN(C)[C@@H]1C(O)=C(C(N)=O)C(=O)[C@@]2(O)C(O)=C3C(=O)c4c(O)cccc4[C@@](C)(O)[C@H]3C[C@@H]12` [TET, tetracycline], the MIC in series [1] was determined as 32 µg/mL; in series [2], 1 µg/mL. For the same molecule, the “Slope (initial velocity of substrate degradation)” value (“Slope” below) is 0.0375 and 0.04014 and 0.02364 on Tet(X6) (setting [9]); 0.04215 and 0.04584 and 0.0387 on Tet(X6) (setting [10]); 0.05933 and 0.04704 and 0.05922 at Tet(X6) (setting [11]); 0.06246 and 0.0528 and 0.05754 on Tet(X6) (setting [12]); 0.05855 and 0.06072 and 0.05694 on Tet(X6) (setting [13]); 0.07878 and 0.08328 and 0.07938 at Tet(X6) (setting [14]). Moreover, the “Slope” value on Tet(X6) (setting [15]) is 0.0879 and 0.09378 and 0.09744. In addition, the “Michaelis-menten nonlinear fit, best-fit Kcat” value on Tet(X6) is on record as 0.2636. Further, the “Michaelis-menten nonlinear fit, best-fit Vmax” value on Tet(X6) was 0.1054 and 0.1047.

As for `C[C@H]1c2cccc(O)c2C(=O)C2=C(O)[C@]3(O)C(=O)C(C(N)=O)=C(O)[C@@H](N(C)C)[C@@H]3[C@@H](O)[C@@H]21` [DOX, doxycycline], the MIC in series [3] (20 h) was determined as 32 µg/mL; in series [1], 16 µg/mL; in series [2], 1 µg/mL.

With Tet(X6) (Proteus columbae), the kcat is 0.00433 ± 0.00017 s⁻¹ in series [4], 0.00267 ± 0.00033 s⁻¹ in series [5] (setting [16]), 0.0083 ± 0.0017 s⁻¹ in series [7] (setting [16]) and 0.00333 ± 0.00033 s⁻¹ in series [8] (setting [16]). The Km in [5] (setting [16]) is 12 µM; in series [5] (setting [17]), 11.8 µM and 11.1 µM; in series [6] it was 6 µM; in series [7] (setting [16]), 47 µM; in [7] (setting [17]), 46.6 µM; in [8] (setting [16]), 18 µM. In series [8] (setting [17]), the Km worked out at 18.4 µM. Also, the kcat/Km came out at 217 ± 67 M⁻¹ s⁻¹ in series [5] (setting [16]), 200 ± 50 M⁻¹ s⁻¹ in [6], 183 ± 67 M⁻¹ s⁻¹ in [7] (setting [16]) and 183 ± 50 M⁻¹ s⁻¹ in series [8] (setting [16]).

Regarding `CN(C)c1cc(CNCC(C)(C)C)c(O)c2c1C[C@H]1C[C@H]3[C@H](N(C)C)C(O)=C(C(N)=O)C(=O)[C@@]3(O)C(O)=C1C2=O` [OMA, omadacycline], the MIC in series [3] (20 h) is 64 µg/mL; in series [1], 16 µg/mL; in series [2] it was 2 µg/mL. Also, the “Slope” value on Tet(X6) ([Sub] 1.94805 μM, trials 1-3, absorbance 400 nm (440 nm for aTC)) is 0.0061 and 0.0058 and 0.0045; on Tet(X6) (setting [18]), 0.0076; at Tet(X6) (setting [19]), 0.0203 and 0.0178 and 0.0171; on Tet(X6) (setting [20]) it was 0.0286 and 0.0269 and 0.0241; at Tet(X6) (setting [21]), 0.0336 and 0.0293 and 0.0307; at Tet(X6) (setting [22]) it was 0.0474 and 0.044 and 0.0515. Moreover, the “Sigmoidal curve fit, best-fit Kprime” value on Tet(X6) is 61.85. Moreover, the “Sigmoidal curve fit, best-fit Vmax” value at Tet(X6) was found to be 0.05144. At Tet(X6), the “Sigmoidal curve fit, best-fit h” value is on record as 1.97. Moreover, at Tet(X6), the “Sigmoidal curve fit, best-fit Khalf” value stood at 8.114. Besides, at Tet(X6), the “Michaelis-menten nonlinear fit, best-fit Kcat” value amounted to 0.1969. Moreover, the “Michaelis-menten nonlinear fit, best-fit Vmax” value at Tet(X6) is reported as 0.07875.

Turning to `CN(C)c1cc(NC(=O)CNC(C)(C)C)c(O)c2c1C[C@H]1C[C@H]3[C@H](N(C)C)C(O)=C(C(N)=O)C(=O)[C@@]3(O)C(O)=C1C2=O` [TIG, tigecycline], the MIC in series [3] (20 h) was found to be 4 µg/mL; in series [1], 2 µg/mL; in [2], 0.5 µg/mL. In addition, the “Slope” value was 0.00897 and 0.01087 and 0.008562 on Tet(X6) (setting [9]); 0.01529 and 0.0186 and 0.0147 at Tet(X6) (setting [10]); 0.02792 and 0.01914 and 0.0183 on Tet(X6) (setting [11]); 0.03155 and 0.02526 and 0.02718 at Tet(X6) (setting [12]); 0.02741 and 0.02394 and 0.02598 on Tet(X6) (setting [13]); 0.03075 and 0.05034 and 0.0363 at Tet(X6) (setting [14]). In addition, the “Slope” value on Tet(X6) (setting [15]) was 0.05374 and 0.04632 and 0.03822. In addition, the “Michaelis-menten nonlinear fit, best-fit Kcat” value at Tet(X6) was found to be 0.1574. Further, at Tet(X6), the “Michaelis-menten nonlinear fit, best-fit Vmax” value was 0.06296 and 0.06154.

As for `CN(C)[C@@H]1C(O)=C(C(N)=O)C(=O)[C@@]2(O)C(O)=C3C(=O)c4c(O)c(NC(=O)CN5CCCC5)cc(F)c4C[C@H]3C[C@@H]12` [ERA, eravacycline], the minimum inhibitory concentration (MIC) in series [3] (20 h) worked out at 8 µg/mL; in [1], 4 µg/mL; in series [2] it was 0.25 µg/mL. The “Slope” value at Tet(X6) (setting [18]) was 0.0062 and 0.0046 and 0.0039; at Tet(X6) (setting [19]) it was 0.0169 and 0.0106 and 0.0133; on Tet(X6) (setting [20]), 0.0312 and 0.0317 and 0.0293; at Tet(X6) (setting [21]), 0.0442 and 0.0406 and 0.047; at Tet(X6) ([Sub] 20.1299 μM, trials 1-3, absorbance 400 nm (440 nm for aTC)), 0.0511 and 0.0571 and 0.0722; on Tet(X6) (setting [22]), 0.0798 and 0.0764 and 0.0969. On Tet(X6) ([Sub] 64.9351 μM, trials 1-2, absorbance 400 nm), the “Slope” value is 0.1162 and 0.1096. In addition, the “Sigmoidal curve fit, best-fit Kprime” value at Tet(X6) worked out at 84.21. Further, the “Sigmoidal curve fit, best-fit Vmax” value on Tet(X6) is 0.1315. Also, the “Sigmoidal curve fit, best-fit h” value on Tet(X6) is 1.474. Further, on Tet(X6), the “Sigmoidal curve fit, best-fit Khalf” value stood at 20.22. Moreover, the “Michaelis-menten nonlinear fit, best-fit Kcat” value on Tet(X6) was 0.5027. Also, the “Michaelis-menten nonlinear fit, best-fit Vmax” value at Tet(X6) is 0.2011.

As to `CN(C)c1ccc(O)c2c1C[C@H]1C[C@H]3[C@H](N(C)C)C(O)=C(C(N)=O)C(=O)[C@@]3(O)C(O)=C1C2=O` [minocycline], the “reduction of apparent Km by point mutation Thr280Ala in Tet(X2)” value with Tet(X2) is given as “two-fold”.

Turning to `CN(C)[C@@H]1C(O)=C(C(N)=O)C(=O)[C@@]2(O)C(O)=C3C(=O)c4c(O)ccc(Cl)c4[C@@](C)(O)[C@H]3C[C@@H]12` [CTC, chlortetracycline], the MIC in [3] came to 128 µg/mL; in [1], 32 µg/mL; in [2] it was 2 µg/mL.
